In ChEMBL document CHEMBL1123556, “Synthesis of antimicrobial agents. 1. Syntheses and antibacterial activities of 7-(azole substituted)quinolones” (J Med Chem, 1987):
Values after ≈ are worked out from the molar mass of the structure shown.

Tests used:
Bacillus subtilis = test: In vitro antibacterial activity against Bacillus subtilis ATCC 6633; type: functional
Klebsiella pneumoniae [1] = test: microbe, parasite or virus in culture; type: functional
Proteus vulgaris = test: In vitro antibacterial activity against Proteus vulgaris HX-19; type: functional
Pseudomonas aeruginosa = test: In vitro antibacterial activity against Pseudomonas aeruginosa IFO 3445; type: functional
Salmonella paratyphi [2] = test: microbe, parasite or virus in culture; type: functional, Salmonella enterica subsp. enterica serovar Paratyphi A; details: Salmonella enterica
[3] = tested on: Staphylococcus epidermidis; test: microbe, parasite or virus in culture; type: functional
Escherichia coli = test: In vitro antibacterial activity against Escherichia coli NIHJ JC-2; type: functional
Staphylococcus aureus = test: In vitro antibacterial activity against Staphylococcus aureus FDA 209P JC-1; type: functional
[4] = Concentrations in serum after 120 minutes at 50 mg / kg oral administration; type: ADME, cell-free
[5] = Concentrations in serum after 240 minutes at 50 mg / kg oral administration; type: ADME
[6] = Concentrations in serum after 30 minutes at 50 mg / kg oral administration; type: ADME, cell-free
[7] = Concentrations in serum after 60 minutes at 50 mg / kg oral administration; type: ADME, cell-free
[8] = Total serum concentrations at 0 to 4 hours interval was determined by 50 mg / kg oral administration; type: ADME, cell-free
Mus musculus [9] = test: In vivo antibacterial activity against Escherichia coli (KC-14) was determined for the compound administered perorally; Value ranges from 4.8-9.4; type: functional; details: po
[10] = In vivo acute toxicity against Escherichia coli (KC-14) was determined for the compound administered intravenously; type: organism-based; details: mouse, iv
[11] = In vivo acute toxicity against Escherichia coli (KC-14) was determined for the compound administered orally; type: organism-based; details: mouse, po
Klebsiella pneumoniae [12] = test: In vitro antibacterial activity against Klebsiella pneumoniae PCI-602; type: functional
Salmonella paratyphi [13] = test: In vitro antibacterial activity against Salmonella paratyphi 1015; type: functional, Salmonella enterica subsp. enterica serovar Paratyphi A; details: Salmonella enterica
[14] = tested on: Staphylococcus epidermidis; test: In vitro antibacterial activity against Staphylococcus epidermidis IAM 1576; type: functional
Mus musculus [15] = test: In vivo antibacterial activity against Escherichia coli (KC-14) was determined for the compound administered perorally; Value ranges from 2.4-4.7; type: functional; details: po

SMILES | MIC (Bacillus subtilis) | MIC (Klebsiella pneumoniae [1]) | MIC (Proteus vulgaris) | MIC (Pseudomonas aeruginosa) | MIC (Salmonella paratyphi [2]) | MIC [3] | MIC (Escherichia coli) | MIC (Staphylococcus aureus) | concentration at 2 h [4] | concentration at 4 h [5] | concentration at 0.5 h [6] | concentration at 1 h [7] | Concentration in serum [8] | ED50 (Mus musculus [9]) | LD50 [10] | LD50 [11] | MIC (Klebsiella pneumoniae [12]) | MIC (Salmonella paratyphi [13]) | MIC [14] | ED50 (Mus musculus [15])
CCn1cc(C(=O)O)c(=O)c2cc(F)c(-n3cnnc3)cc21 | 25 µg/mL (≈ 82.7 µM) | 12.5 µg/mL (≈ 41.4 µM) | 25 µg/mL (≈ 82.7 µM) | 25 µg/mL (≈ 82.7 µM) | 3.13 µg/mL (≈ 10.4 µM) | 25 µg/mL (≈ 82.7 µM) | 25 µg/mL (≈ 82.7 µM) | 25 µg/mL (≈ 82.7 µM) |  |  |  |  |  |  |  |  |  |  |  | 
CCn1cc(C(=O)O)c(=O)c2cc(F)c(-n3cnc(CN(C)C)c3)c(F)c21 | 6.25 µg/mL (≈ 16.6 µM) | 3.13 µg/mL (≈ 8.32 µM) | 6.25 µg/mL (≈ 16.6 µM) | 25 µg/mL (≈ 66.4 µM) | 6.25 µg/mL (≈ 16.6 µM) | 25 µg/mL (≈ 66.4 µM) | 25 µg/mL (≈ 66.4 µM) | 6.25 µg/mL (≈ 16.6 µM) |  |  |  |  |  |  |  |  |  |  |  | 
CCn1cc(C(=O)O)c(=O)c2cc(F)c(-n3cnc(CO)c3)c(F)c21 | 6.25 µg/mL (≈ 17.9 µM) | 0.78 µg/mL (≈ 2.23 µM) | 0.78 µg/mL (≈ 2.23 µM) | 25 µg/mL (≈ 71.6 µM) | 0.39 µg/mL (≈ 1.12 µM) | 25 µg/mL (≈ 71.6 µM) | 6.25 µg/mL (≈ 17.9 µM) | 25 µg/mL (≈ 71.6 µM) |  |  |  |  |  |  |  |  |  |  |  | 
CCn1cc(C(=O)O)c(=O)c2cc(F)c(-n3cnc4c3CCCC4)c(F)c21 | 0.39 µg/mL (≈ 1.04 µM) | 1.56 µg/mL (≈ 4.18 µM) | 3.13 µg/mL (≈ 8.38 µM) | 25 µg/mL (≈ 67 µM) | 6.25 µg/mL (≈ 16.7 µM) | 6.25 µg/mL (≈ 16.7 µM) | 12.5 µg/mL (≈ 33.5 µM) | 1.56 µg/mL (≈ 4.18 µM) |  |  |  |  |  |  |  |  |  |  |  | 
CCn1cc(C(=O)O)c(=O)c2cc(F)c(-n3ccnc3)c(OC)c21 | 0.1 µg/mL (≈ 0.302 µM) | 0.1 µg/mL (≈ 0.302 µM) | 0.1 µg/mL (≈ 0.302 µM) | 25 µg/mL (≈ 75.5 µM) | 0.1 µg/mL (≈ 0.302 µM) | 1.56 µg/mL (≈ 4.71 µM) | 1.56 µg/mL (≈ 4.71 µM) | 0.39 µg/mL (≈ 1.18 µM) |  |  |  |  |  |  |  |  |  |  |  | 
CCn1cc(C(=O)O)c(=O)c2cc(F)c(N3CCNCC3)cc21 [NORFLOXACIN] |  |  |  |  |  |  |  |  | 400 ng/mL | 360 ng/mL | 1050 ng/mL | 690 ng/mL | 2000 ng/mL | 6.7 mg/kg | 327 mg/kg | 4000 mg/kg |  |  |  | 
CCn1cc(C(=O)O)c(=O)c2cc(F)c(-n3ccnc3C)c(F)c21 | 0.78 µg/mL (≈ 2.34 µM) | 0.39 µg/mL (≈ 1.17 µM) | 0.2 µg/mL (≈ 0.6 µM) | 25 µg/mL (≈ 75 µM) | 0.39 µg/mL (≈ 1.17 µM) | 25 µg/mL (≈ 75 µM) | 3.13 µg/mL (≈ 9.39 µM) | 6.25 µg/mL (≈ 18.8 µM) |  |  |  |  |  |  |  |  |  |  |  | 
CCn1cc(C(=O)O)c(=O)c2cc(F)c(-n3cnc(C=O)c3)c(F)c21 | 0.78 µg/mL (≈ 2.25 µM) |  | 0.2 µg/mL (≈ 0.576 µM) | 25 µg/mL (≈ 72 µM) |  |  | 0.78 µg/mL (≈ 2.25 µM) | 3.13 µg/mL (≈ 9.01 µM) |  |  |  |  |  |  |  |  | 0.2 µg/mL (≈ 0.576 µM) | 0.2 µg/mL (≈ 0.576 µM) | 25 µg/mL (≈ 72 µM) | 
CCn1cc(C(=O)O)c(=O)c2cc(F)c(-n3cnc(C(=O)N(C)C)c3)c(F)c21 | 6.25 µg/mL (≈ 16 µM) | 1.56 µg/mL (≈ 4 µM) | 3.13 µg/mL (≈ 8.02 µM) | 25 µg/mL (≈ 64 µM) | 3.13 µg/mL (≈ 8.02 µM) | 25 µg/mL (≈ 64 µM) | 25 µg/mL (≈ 64 µM) | 12.5 µg/mL (≈ 32 µM) |  |  |  |  |  |  |  |  |  |  |  | 
CCn1cc(C(=O)O)c(=O)c2cc(F)c(-n3cnc(C(=O)OC)c3)c(F)c21 | 12.5 µg/mL (≈ 33.1 µM) | 3.13 µg/mL (≈ 8.3 µM) | 1.56 µg/mL (≈ 4.13 µM) | 25 µg/mL (≈ 66.3 µM) | 3.13 µg/mL (≈ 8.3 µM) | 25 µg/mL (≈ 66.3 µM) | 25 µg/mL (≈ 66.3 µM) | 25 µg/mL (≈ 66.3 µM) |  |  |  |  |  |  |  |  |  |  |  | 
CCn1cc(C(=O)O)c(=O)c2cc(F)c(-n3cnc(C)c3)c(F)c21 |  |  |  |  |  |  |  |  | 10000 ng/mL | 6300 ng/mL | 49200 ng/mL | 29400 ng/mL | 67900 ng/mL |  | 593 mg/kg | 4000 mg/kg |  |  |  | 3.3 mg/kg
